Test systems include HT29 colon; OVCAR-3 ovarian; MOLT-4 leukemia; M14 melanoma; U251 CNS; HOP-62 NSCLC; OVCAR-4 ovarian; HCT-116 colon; KM12 colon.
Experiment in all cases: DTP human tumour cell line panel, 48 h

TGI and GI50 data for 13 compounds are collected here from PubChem BioAssay (NCI).

SMILES strings stand for the structures.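 Grown in 96-well plates, cells were treated for 48 hours with each compound at five concentrations. Insufficient inhibition: endpoint recorded as highest concentration tested. The concentration for 50% growth inhibition is given as GI50. Definition used: TGI = concentration required for complete inhibition of growth.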 A value given as a limit tells only on which side of the number the result lay.

As usually defined, the TGI is the concentration giving total growth inhibition. Higher therefore signals lower sensitivity of the cells. As usually defined, the GI50 is the concentration giving 50% growth inhibition.

As to `Cc1ccc(N2C(=O)N(c3ccc(C)cc3)C3(SC=NN3C)C2=O)cc1` (centres undefined), the concentration for total growth inhibition (TGI) in the experiment with HT29 colon, in the experiment with OVCAR-3 ovarian, with MOLT-4 leukemia, with M14 melanoma, in the experiment with U251 CNS and in the experiment with HOP-62 NSCLC was more than 100 µM in each case. Besides, the total growth inhibition concentration (TGI) in the experiment with OVCAR-4 ovarian, with HCT-116 colon and in the experiment on KM12 colon was more than 100 µM each time.
`COc1cc(/C=C2\CCC/C(=C\c3ccc(OCC4CO4)c(OC)c3)C2=O)ccc1OCC1CO1` (centres undefined): the GI50 is 2250 nM in the experiment on HT29 colon; 2440 nM with OVCAR-3 ovarian; 2910 nM in the experiment with MOLT-4 leukemia; 1940 nM with M14 melanoma; 2110 nM in the experiment on U251 CNS; 3.38 µM in the experiment with HOP-62 NSCLC. Also, the figures for the GI50 in the experiment on HCT-116 colon and with KM12 colon were 1850 nM and 1880 nM, respectively. In addition, the TGI in the experiment on HT29 colon came out at 4.62 µM; with OVCAR-3 ovarian, 6.23 µM; with MOLT-4 leukemia it was 34.1 µM; with M14 melanoma, 3.99 µM; in the experiment on U251 CNS, 5.27 µM; in the experiment on HOP-62 NSCLC, 9.59 µM. Further, the TGI in the experiment on HCT-116 colon is 6.01 µM; with KM12 colon, 5.13 µM.
Take `N#Cc1c(-c2ccco2)cc(-c2ccc(N)cc2)[nH]c1=O`: the TGI in the experiment with HT29 colon, with OVCAR-3 ovarian, in the experiment on MOLT-4 leukemia, in the experiment on M14 melanoma, with U251 CNS and in the experiment with HOP-62 NSCLC was more than 100 µM throughout. Further, the TGI in the experiment on OVCAR-4 ovarian, with HCT-116 colon and in the experiment on KM12 colon was more than 100 µM each time.
For the compound `NCCN.O=C([O-])[O-].O=C([O-])[O-].[Co+3].[K+]`, the GI50 was more than 100000 nM with HT29 colon; more than 100000 nM in the experiment on OVCAR-3 ovarian; more than 100000 nM with MOLT-4 leukemia; more than 100000 nM in the experiment on M14 melanoma; more than 100000 nM in the experiment on U251 CNS; more than 100 µM in the experiment on HOP-62 NSCLC. Further, the GI50 with OVCAR-4 ovarian, in the experiment on HCT-116 colon and in the experiment with KM12 colon was more than 100000 nM throughout. The TGI in the experiment on HT29 colon, in the experiment on OVCAR-3 ovarian, in the experiment on MOLT-4 leukemia, in the experiment with M14 melanoma, in the experiment with U251 CNS and in the experiment on HOP-62 NSCLC was more than 100 µM in each case. Besides, the TGI with OVCAR-4 ovarian, with HCT-116 colon and with KM12 colon was more than 100 µM each time.
Take `O=C1CC2CCN(C(=O)c3ccccc3)CC2CCN1` (centres undefined): the concentration for total growth inhibition (TGI) in the experiment on HT29 colon, in the experiment on OVCAR-3 ovarian, in the experiment with MOLT-4 leukemia, in the experiment with M14 melanoma, in the experiment with U251 CNS and in the experiment on HOP-62 NSCLC was more than 100 µM each time. For the same compound, the concentration for total growth inhibition (TGI) in the experiment on OVCAR-4 ovarian, in the experiment on HCT-116 colon and in the experiment with KM12 colon was more than 100 µM each time.
For `NC(CCc1ncc(C(=O)O)s1)C(=O)O` (centres undefined), the TGI in the experiment with HT29 colon, in the experiment on OVCAR-3 ovarian, with MOLT-4 leukemia, in the experiment on M14 melanoma, in the experiment on U251 CNS and with HCT-116 colon was more than 100 µM throughout. In the experiment with KM12 colon, this compound registered a TGI of more than 100 µM.
Consider `COC(=O)c1c[nH]cc1CCCCc1c[nH]cc1C(=O)OC`, for which the TGI in the experiment with HT29 colon, in the experiment with OVCAR-3 ovarian, in the experiment with MOLT-4 leukemia, with U251 CNS, with HOP-62 NSCLC and with OVCAR-4 ovarian was more than 100 µM throughout. The TGI with HCT-116 colon and in the experiment on KM12 colon was more than 100 µM throughout.
On to `Cc1cc(NCCCCNc2ccnc3cc(Cl)ccc23)nc(Nc2ccc(C(=O)N3CCCCC3)cc2)n1`, for which the GI50 in the experiment on HT29 colon is 1780 nM; in the experiment with OVCAR-3 ovarian, 1700 nM; in the experiment on MOLT-4 leukemia it was 1710 nM; in the experiment with M14 melanoma, 197 nM; in the experiment with U251 CNS, 1780 nM; in the experiment with HOP-62 NSCLC it was 2.09 µM. For the same compound, the figures for the GI50 with OVCAR-4 ovarian and with KM12 colon were 1600 nM and 1910 nM, respectively. The TGI in the experiment on HT29 colon was 4.62 µM; with OVCAR-3 ovarian, 3.44 µM; in the experiment on MOLT-4 leukemia, 7.13 µM; in the experiment with M14 melanoma, 0.383 µM; with U251 CNS, 3.56 µM; in the experiment on HOP-62 NSCLC it was 4.2 µM. Besides, the TGI in the experiment on OVCAR-4 ovarian is 5.52 µM; in the experiment on KM12 colon it was 4.21 µM.
As to `CC1COS(=O)O1` (centres undefined), the TGI in the experiment with HT29 colon, with OVCAR-3 ovarian, with MOLT-4 leukemia, in the experiment on M14 melanoma, in the experiment with HOP-62 NSCLC and with OVCAR-4 ovarian was more than 100 µM throughout. For the same compound, the total growth inhibition concentration (TGI) in the experiment on HCT-116 colon and in the experiment on KM12 colon was more than 100 µM throughout.
In the case of `O=C1c2ccc3c4ccccc4n(-c4ccccc4)c3c2C(=O)N1c1ccc(Cl)cc1`, the TGI with HT29 colon, in the experiment on OVCAR-3 ovarian, in the experiment with MOLT-4 leukemia, in the experiment on M14 melanoma, in the experiment on U251 CNS and in the experiment on HOP-62 NSCLC was more than 100 µM throughout. The TGI in the experiment with OVCAR-4 ovarian, in the experiment with HCT-116 colon and with KM12 colon was more than 100 µM throughout.
`CC(C)(C)OC(=O)N1C2CCCC23O[C@@H]1c1cc2c(cc1C3=O)OCO2` (some centres undefined): the TGI with HT29 colon was more than 100 µM; in the experiment with OVCAR-3 ovarian it was 40.2 µM; with MOLT-4 leukemia, more than 100 µM; in the experiment on M14 melanoma it was more than 100 µM; in the experiment on U251 CNS, more than 100 µM; in the experiment with HOP-62 NSCLC, more than 100 µM. For the same compound, the TGI in the experiment on OVCAR-4 ovarian, in the experiment on HCT-116 colon and in the experiment with KM12 colon was more than 100 µM throughout.
In the case of `COc1cc2c(cc1OC)C1Cc3cc(OC)c(OC)cc3N1CC2` (centres undefined), the TGI was more than 100 µM with HT29 colon; more than 100 µM in the experiment on OVCAR-3 ovarian; more than 100 µM in the experiment on MOLT-4 leukemia; 53.4 µM in the experiment on M14 melanoma; more than 100 µM in the experiment with U251 CNS; 84.9 µM in the experiment with HOP-62 NSCLC. Also, the total growth inhibition concentration (TGI) in the experiment with OVCAR-4 ovarian is 57.7 µM; in the experiment with HCT-116 colon, more than 100 µM; with KM12 colon, more than 100 µM.
With `Nc1ccc(C2=N/C(=C\c3cccc(N)c3)C(=O)O2)cc1`, the concentration for total growth inhibition (TGI) with HT29 colon, in the experiment with OVCAR-3 ovarian, in the experiment with MOLT-4 leukemia, with M14 melanoma, in the experiment on U251 CNS and in the experiment on OVCAR-4 ovarian was more than 100 µM throughout. In the experiment on KM12 colon, this compound showed a concentration for total growth inhibition (TGI) of more than 100 µM.
